The results in this text go back to ChEMBL document CHEMBL5104093, “A comprehensive review on β-lapachone: Mechanisms, structural modifications, and therapeutic potentials” (Eur J Med Chem, 2021).

pIC50: −log10 of the molar value. Values after ≈ are worked out from the molar mass of the structure shown.

The test system of test [1] is Trypanosoma cruzi. The experiment in a line: Antitrypanosomal activity against bloodstream form of Trypanosoma cruzi Y trypomastigotes infected in albino mouse assessed as reduction in viable parasite in blood by Neubauer counting chamber method. Format: functional, organism-based.
The test system of test [2] is Trypanosoma cruzi. The experiment in a line: Antitrypanosomal activity against bloodstream form of Trypanosoma cruzi Y trypomastigotes infected in albino mouse assessed as reduction in viable parasite in blood incubated for 24 hrs by Neubauer counting chamber method. Format: functional, organism-based.
The next test deals with NCI-H292. Description: Cytotoxicity against human NCI-H292 cells assessed as reduction in cell viability incubated for 72 hrs by MTT assay. Format: functional, cell-based. The following applies: NCI-H292, 72 h. In general terms: Tetrazolium dyes change colour on reduction, which living cells bring about.
A further test relates to HEp-2. Description: Cytotoxicity against human HEp-2 cells assessed as reduction in cell viability incubated for 72 hrs by MTT assay. The class given is functional, cell-based. The following applies: HEp-2, 72 h.
The next test relates to HL-60. Description: Cytotoxicity against human HL-60 cells assessed as reduction in cell viability incubated for 72 hrs by MTT assay. Format: functional, cell-based. The following applies: HL-60, 72 h.
For another test, the system named is PC-3. The experiment in a line: Cytotoxicity against human PC-3 cells assessed as reduction in cell viability incubated for 72 hrs by MTT assay. The class given is functional, cell-based. The following applies: PC-3, 72 h.
The subject of test [3] is SF-295. The experiment in a line: Cytotoxicity against human SF-295 cells assessed as reduction in cell viability incubated for 72 hrs by MTT assay. As to conditions: SF-295, 72 h. The class given is functional, cell-based.
A further test deals with MDA-MB-435. Description: Cytotoxicity against human MDA-MB-435 cells assessed as reduction in cell viability incubated for 72 hrs by MTT assay. Format: functional, cell-based. The following applies: MDA-MB-435, 72 h.
The next test deals with HCT-8. Description: Cytotoxicity against human HCT-8 cells assessed as reduction in cell viability incubated for 72 hrs by MTT assay. The class given is functional, cell-based. The following applies: HCT-8, 72 h.
A further test relates to B16. Description: Cytotoxicity against mouse B16 cells assessed as reduction in cell viability incubated for 72 hrs by MTT assay. The class given is functional, cell-based. The following applies: B16, 72 h.
The subject of another test is OVCAR-8. Description: Cytotoxicity against human OVCAR-8 cells assessed as reduction in cell viability by MTT assay. Format: functional, cell-based.
Test [4] relates to SF-295. The experiment in a line: Cytotoxicity against human SF-295 cells assessed as reduction in cell viability by MTT assay. Format: functional, cell-based.
The next test concerns HCT-116. The experiment in a line: Cytotoxicity against human HCT-116 cells assessed as reduction in cell viability by MTT assay. The class given is functional, cell-based.
The test system of test [5] is Trypanosoma cruzi. Description: Antitrypanosomal activity against bloodstream form of Trypanosoma cruzi trypomastigotes infected in Swiss mouse assessed as reduction in viable parasite in blood incubated for 24 hrs by Neubauer counting chamber method. Format: functional, organism-based.
For the next test, the system named is Staphylococcus aureus. The experiment in a line: Antibacterial activity against Staphylococcus aureus 2065 MA assessed as diameter of bacterial growth inhibition by Mueller-Hinton broth based assay. The class given is functional.
A further test deals with MCF7. Description: Cytotoxicity against human MCF7 cells assessed as reduction in cell viability incubated for 72 hrs by MTT assay. The following applies: MCF7, 72 h. Format: functional, cell-based.
The subject of test [6] is Mycobacterium tuberculosis. The experiment in a line: Antimycobacterial activity against Mycobacterium tuberculosis H37Rv ATCC 27294 assessed as bacterial growth inhibition incubated for 7 days by resazurin dye based microtiter assay. The class given is functional. As to conditions: ATCC 27294, 168 h, time 7 day.
A further test has as its system Jurkat. Description: Cytotoxicity against human Jurkat cells assessed as reduction in cell viability incubated for 72 hrs by MTT assay. Format: functional, cell-based.
A further test has as its system MOLT-4. Description: Cytotoxicity against human MOLT-4 cells assessed as reduction in cell viability incubated for 72 hrs by MTT assay. The following applies: MOLT-4, 72 h. The class given is functional, cell-based.
The next test deals with K562. The experiment in a line: Cytotoxicity against human K562 cells assessed as reduction in cell viability incubated for 72 hrs by MTT assay. The class given is functional, cell-based. As to conditions: K562, 72 h.
Another test concerns HeLa. The experiment in a line: Cytotoxicity against human HeLa cells assessed as reduction in cell viability incubated for 48 hrs by MTT assay. The class given is functional, cell-based.
A further test has as its system HepG2. The experiment in a line: Cytotoxicity against human HepG2 cells assessed as reduction in cell viability incubated for 48 hrs by MTT assay. Format: functional, cell-based. The following applies: HepG2, 48 h.
The subject of the next test is KB. The experiment in a line: Cytotoxicity against human KB cells assessed as reduction in cell viability incubated for 48 hrs by MTT assay. Format: functional, cell-based.

With `COc1ccc(/C=C/C(=O)c2ccc(NC3C4=C(OC3(C)C)c3ccccc3C(=O)C4=O)cc2)cc1` (stereo unspecified), the pIC50 in the test on Trypanosoma cruzi [1] was 3.64.
As to `COc1ccc(-c2nc3c([nH]2)c2c(c4ccccc43)OC(C)(C)CC2)cc1`, the pIC50 with Trypanosoma cruzi [2] was 3.59.
For the molecule `CC(=O)OCC1C2=C(OC1(C)C)c1ccccc1C(=O)C2=O` (stereo unspecified), the pIC50 in the test on NCI-H292 and in the test on HEp-2 was 6.22 each time.
As for `CC(C)(O)c1cn(C2C3=C(OC2(C)C)c2ccccc2C(=O)C3=O)nn1` (stereo unspecified), the pIC50 with HL-60, with PC-3, in the test with SF-295 [3], in the test on MDA-MB-435, in the test on HCT-8 and with B16 was 5.55 each time.
`CC1(C)OC2=C(C(=O)C(=O)c3ccccc32)C1CO` (stereo unspecified): the pIC50 in the test on NCI-H292 and in the test with HEp-2 was 6.34 throughout.
As for `O=C1C(=O)c2c(O)cccc2C2=C1CCC(c1ccccc1)O2` (stereo unspecified), the pIC50 in the test with HL-60, in the test on SF-295 [3], in the test with MDA-MB-435 and in the test with HCT-8 was 6.96 in each case.
For `CC1(C)O[C@H]2O[C@H](COC3C4=C(OC3(C)C)c3ccccc3C(=O)C4=O)[C@@H](OCc3ccccc3)[C@H]2O1` (stereo partly specified), the pIC50 in the test with OVCAR-8, with SF-295 [4] and with HCT-116 was 6.80 throughout.
For `CC1(C)OC2=C(C(=O)C(=O)c3ccccc32)C1N=[N+]=[N-]` (stereo unspecified), the pIC50 in the test on HL-60, in the test on PC-3, with SF-295 [3], in the test with MDA-MB-435, with HCT-8 and in the test with B16 was 5.92 each time.
Take `CC1(C)OC2=C(C(=O)C(=O)c3ccccc32)C1n1cc(CO)nn1` (stereo unspecified): the pIC50 in the test on HL-60, in the test on PC-3, in the test with SF-295 [3], in the test with MDA-MB-435, in the test with HCT-8 and in the test with B16 was 5.47 throughout.
With `CC1(C)CCc2c(c3ccccc3c3nc(-c4ccccc4Cl)[nH]c23)O1`, the pIC50 in the test on Trypanosoma cruzi [5] was 4.43.
Take `CC1(C)OC2=C(C(=O)C(=O)c3ccccc32)C1S(=O)(=O)C1CCCCC1` (stereo unspecified): in the test on Staphylococcus aureus, the zone diameter came out at 8 mm.
Turning to `O=C1C(=O)c2c(O)cccc2C2=C1CCC(c1ccc(Cl)cc1)O2` (stereo unspecified), the pIC50 with HL-60 was 6.77; in the test on SF-295 [3], 6.77; with MDA-MB-435 it was 6.82; in the test on HCT-8, 6.77.
Consider `O=C1C(=O)c2c(O)cccc2C2=C1CCC(c1ccc(F)cc1)O2` (stereo unspecified), for which the pIC50 was 6.68 with HL-60, 6.68 with SF-295 [3], 6.82 with MDA-MB-435 and 6.68 with HCT-8.
For the molecule `CC(=O)OCC1CC2=C(OC1(C)C)c1ccccc1C(=O)C2=O` (stereo unspecified), the results for the pIC50 with MCF7, in the test with NCI-H292 and with HEp-2 were 5.56, 5.65 and 5.65, respectively.
On to `O=C1C(=O)c2c(O)cccc2C2=C1CCC(c1ccc(Br)cc1)O2` (stereo unspecified), for which the pIC50 in the test with HL-60, in the test with SF-295 [3], in the test on MDA-MB-435 and in the test on HCT-8 was 6.82 in each case.
On to `COc1ccc(-c2nc3c(o2)c2c(c4ccccc43)OC(C)(C)CC2)cc1`, for which the pIC50 in the test with Trypanosoma cruzi [2] was 2.46.
`O=C1C(=O)c2ccccc2C2=C1CC(Cn1cc(COC3CCCCO3)nn1)O2` (stereo unspecified): in the test with Trypanosoma cruzi [1], the negative-log IC50 (pIC50) was 4.28.
For the molecule `CC1(C)OC2=C(CC1CO)C(=O)C(=O)c1ccccc12` (stereo unspecified), the negative logarithm of the IC50 (pIC50) in the test with MCF7, with NCI-H292 and in the test with HEp-2 was 5.26 throughout.
In the case of `CC1(C)Oc2c(c3nc4ccccc4nc3c3ccccc23)C1N=[N+]=[N-]` (stereo unspecified), in test [6], the MIC worked out at 25 µg/mL (≈ 73.2 µM).
Take `CC1CCC2C(C1)c1c(c3ccccc3c3nc4ccccc4nc13)OC2(C)C` (stereo unspecified): in test [6], the MIC was under 6.25 µg/mL.
As to `O=C1C(=O)c2ccccc2C2=C1CC(CI)O2` (stereo unspecified), the pIC50 in the test with Jurkat, with MOLT-4 and in the test with K562 was 5.86 in each case.
On to `CCOC(=O)C1=C2C3=C(OC(C)(C)CC3)c3ccccc3C2(O)CC1=O` (stereo unspecified), for which the negative logarithm of the IC50 (pIC50) in the test on Trypanosoma cruzi [2] was 4.25.
`CC1COC2=C(C1)C(=O)C(=O)c1ccccc12` (stereo unspecified): the pIC50 in the test with HeLa, with HepG2 and in the test with KB was 6.04 in each case.
`Cc1cccc(S(=O)(=O)C2C3=C(OC2(C)C)c2ccccc2C(=O)C3=O)c1` (stereo unspecified): the zone diameter with Staphylococcus aureus is 7 mm.
In the case of `CC(=O)OC[C@H]1O[C@@H](OCc2cn(C3C4=C(OC3(C)C)c3ccccc3C(=O)C4=O)nn2)[C@H](OC(C)=O)[C@@H](OC(C)=O)[C@H]1OC(C)=O` (stereo partly specified), the pIC50 with Trypanosoma cruzi [1] is 3.68.
Turning to `CC1(C)Oc2c(c3nc4ccccc4nc3c3ccccc23)C=C1Br`, in test [6], the MIC is under 6.25 µg/mL.
Take `CC1(C)CC2=C(O1)c1ccccc1C(=O)C2=O` [NOR-BETA-LAPACHONE]: in the test with Jurkat, the pIC50 is 5.87.

For orientation: pIC50 means −log10 of the IC50, conventionally taken in molar units. By MIC is commonly meant the smallest concentration in the dilution series that meets the test's criterion for growth inhibition.
